Source: PubChem BioAssay (NCI)
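1) Cells in 96-well plates. 2) Compound, 48 h, 5 concentrations. 3) Linear interpolation between surrounding doses. 4) Unreached endpoint = highest concentration. TGI: total growth inhibition.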

What follows are compounds tested on SF-268 CNS (assay: DTP human tumour cell line panel, 48 h).
Work on `COc1ccc2c(c1)C(N)=C(c1ccccc1OC)C2=O` yielded a TGI of over 100 µM. `COc1cc(C)c2c(c1C=O)Oc1c(c(C)c(O)c3c1C(O)OC3=O)OC2=O` (stereo not given) was tested, and the TGI was 68 µM.

What follows are compounds tested on SF-539 CNS (assay: DTP human tumour cell line panel, 48 h).
Compound `CN(/N=C(\C(=O)O)c1ccccc1)C1=NCCCCN1` has a TGI of over 100 µM. For `CO[C@@H]1C[C@H]2[C@@H]3CC[C@H]([C@H](C)CO)[C@@]3(C)CC[C@@H]2[C@@]2(C)CC[C@H]3C[C@]312`, the TGI was over 100 µM. `Oc1ccc(-c2nc3ccc4ccccc4c3c3c2CCCC3)c(O)c1` was tested, and the TGI was over 73.2 µM. For `COc1ccc2c(c1)C(N)=C(c1ccccc1OC)C2=O`, the TGI was over 100 µM. `COc1cc(C)c2c(c1C=O)Oc1c(c(C)c(O)c3c1C(O)OC3=O)OC2=O` (stereo not given) gave a TGI of over 100 µM.

These compounds were tested on MDA-MB-231 breast (assay: DTP human tumour cell line panel, 48 h).
`CN(/N=C(\C(=O)O)c1ccccc1)C1=NCCCCN1` showed a TGI of over 100 µM. `CO[C@@H]1C[C@H]2[C@@H]3CC[C@H]([C@H](C)CO)[C@@]3(C)CC[C@@H]2[C@@]2(C)CC[C@H]3C[C@]312` was tested, and the TGI was over 100 µM. `Oc1ccc(-c2nc3ccc4ccccc4c3c3c2CCCC3)c(O)c1` showed a TGI of 37 µM. With `COc1ccc2c(c1)C(N)=C(c1ccccc1OC)C2=O` the TGI was over 100 µM. `COc1cc(C)c2c(c1C=O)Oc1c(c(C)c(O)c3c1C(O)OC3=O)OC2=O` (stereo not given) gave a TGI of 68.3 µM.

Each compound was assayed on HT29 colon (assay: DTP human tumour cell line panel, 48 h).
With `CN(/N=C(\C(=O)O)c1ccccc1)C1=NCCCCN1` the TGI was over 100 µM. With `CO[C@@H]1C[C@H]2[C@@H]3CC[C@H]([C@H](C)CO)[C@@]3(C)CC[C@@H]2[C@@]2(C)CC[C@H]3C[C@]312` the TGI was 40.8 µM. Compound `Oc1ccc(-c2nc3ccc4ccccc4c3c3c2CCCC3)c(O)c1` has a TGI of 25.4 µM. `COc1ccc2c(c1)C(N)=C(c1ccccc1OC)C2=O` showed a TGI of over 100 µM. With `COc1cc(C)c2c(c1C=O)Oc1c(c(C)c(O)c3c1C(O)OC3=O)OC2=O` (stereo not given) the TGI was over 100 µM.

These compounds were tested on BT-549 breast (assay: DTP human tumour cell line panel, 48 h).
Compound `CN(/N=C(\C(=O)O)c1ccccc1)C1=NCCCCN1` has a TGI of over 100 µM. Work on `CO[C@@H]1C[C@H]2[C@@H]3CC[C@H]([C@H](C)CO)[C@@]3(C)CC[C@@H]2[C@@]2(C)CC[C@H]3C[C@]312` yielded a TGI of 49.9 µM. Work on `Oc1ccc(-c2nc3ccc4ccccc4c3c3c2CCCC3)c(O)c1` yielded a TGI of over 100 µM. Compound `COc1ccc2c(c1)C(N)=C(c1ccccc1OC)C2=O` has a TGI of over 100 µM. `COc1cc(C)c2c(c1C=O)Oc1c(c(C)c(O)c3c1C(O)OC3=O)OC2=O` (stereo not given) gave a TGI of over 100 µM.

What follows are compounds tested on PC-3 prostate (assay: DTP human tumour cell line panel, 48 h).
`CN(/N=C(\C(=O)O)c1ccccc1)C1=NCCCCN1` gave a TGI of over 100 µM. Work on `CO[C@@H]1C[C@H]2[C@@H]3CC[C@H]([C@H](C)CO)[C@@]3(C)CC[C@@H]2[C@@]2(C)CC[C@H]3C[C@]312` yielded a TGI of 92.6 µM. `Oc1ccc(-c2nc3ccc4ccccc4c3c3c2CCCC3)c(O)c1` showed a TGI of over 100 µM. For `COc1ccc2c(c1)C(N)=C(c1ccccc1OC)C2=O`, the TGI was over 100 µM. For `COc1cc(C)c2c(c1C=O)Oc1c(c(C)c(O)c3c1C(O)OC3=O)OC2=O` (stereo not given), the TGI was over 100 µM.

Each compound was assayed on HS 578T breast (assay: DTP human tumour cell line panel, 48 h).
`CN(/N=C(\C(=O)O)c1ccccc1)C1=NCCCCN1` showed a TGI of over 100 µM. `CO[C@@H]1C[C@H]2[C@@H]3CC[C@H]([C@H](C)CO)[C@@]3(C)CC[C@@H]2[C@@]2(C)CC[C@H]3C[C@]312` showed a TGI of over 100 µM. In the case of `Oc1ccc(-c2nc3ccc4ccccc4c3c3c2CCCC3)c(O)c1`, the TGI is reported as 88.9 µM. `COc1ccc2c(c1)C(N)=C(c1ccccc1OC)C2=O` was tested, and the TGI was over 100 µM. With `COc1cc(C)c2c(c1C=O)Oc1c(c(C)c(O)c3c1C(O)OC3=O)OC2=O` (stereo not given) the TGI was over 100 µM.

These compounds were tested on MDA-MB-435 (assay: DTP human tumour cell line panel, 48 h).
For `CN(/N=C(\C(=O)O)c1ccccc1)C1=NCCCCN1`, the TGI was over 100 µM. `CO[C@@H]1C[C@H]2[C@@H]3CC[C@H]([C@H](C)CO)[C@@]3(C)CC[C@@H]2[C@@]2(C)CC[C@H]3C[C@]312` showed a TGI of over 100 µM. `Oc1ccc(-c2nc3ccc4ccccc4c3c3c2CCCC3)c(O)c1` showed a TGI of over 63.7 µM. In the case of `COc1ccc2c(c1)C(N)=C(c1ccccc1OC)C2=O`, the TGI is reported as over 100 µM. `COc1cc(C)c2c(c1C=O)Oc1c(c(C)c(O)c3c1C(O)OC3=O)OC2=O` (stereo not given) gave a TGI of over 100 µM.

The compounds below were run on SNB-19 CNS (assay: DTP human tumour cell line panel, 48 h).
`CO[C@@H]1C[C@H]2[C@@H]3CC[C@H]([C@H](C)CO)[C@@]3(C)CC[C@@H]2[C@@]2(C)CC[C@H]3C[C@]312` was tested, and the TGI was over 100 µM. `Oc1ccc(-c2nc3ccc4ccccc4c3c3c2CCCC3)c(O)c1` showed a TGI of 71.2 µM. `COc1ccc2c(c1)C(N)=C(c1ccccc1OC)C2=O` was tested, and the TGI was over 100 µM. Work on `COc1cc(C)c2c(c1C=O)Oc1c(c(C)c(O)c3c1C(O)OC3=O)OC2=O` (stereo not given) yielded a TGI of 60.4 µM.

These compounds were tested on HCC-2998 colon (assay: DTP human tumour cell line panel, 48 h).
In the case of `CN(/N=C(\C(=O)O)c1ccccc1)C1=NCCCCN1`, the TGI is reported as over 100 µM. `CO[C@@H]1C[C@H]2[C@@H]3CC[C@H]([C@H](C)CO)[C@@]3(C)CC[C@@H]2[C@@]2(C)CC[C@H]3C[C@]312` gave a TGI of over 100 µM. With `Oc1ccc(-c2nc3ccc4ccccc4c3c3c2CCCC3)c(O)c1` the TGI was over 100 µM. `COc1ccc2c(c1)C(N)=C(c1ccccc1OC)C2=O` gave a TGI of over 100 µM. Work on `COc1cc(C)c2c(c1C=O)Oc1c(c(C)c(O)c3c1C(O)OC3=O)OC2=O` (stereo not given) yielded a TGI of 44.5 µM.

These compounds were tested on CAKI-1 renal (assay: DTP human tumour cell line panel, 48 h).
`CN(/N=C(\C(=O)O)c1ccccc1)C1=NCCCCN1` was tested, and the TGI was over 100 µM. `CO[C@@H]1C[C@H]2[C@@H]3CC[C@H]([C@H](C)CO)[C@@]3(C)CC[C@@H]2[C@@]2(C)CC[C@H]3C[C@]312` showed a TGI of over 100 µM. Work on `Oc1ccc(-c2nc3ccc4ccccc4c3c3c2CCCC3)c(O)c1` yielded a TGI of over 100 µM. For `COc1ccc2c(c1)C(N)=C(c1ccccc1OC)C2=O`, the TGI was over 100 µM. `COc1cc(C)c2c(c1C=O)Oc1c(c(C)c(O)c3c1C(O)OC3=O)OC2=O` (stereo not given) gave a TGI of over 100 µM.

Each compound was assayed on OVCAR-8 ovarian (assay: DTP human tumour cell line panel, 48 h).
Compound `CN(/N=C(\C(=O)O)c1ccccc1)C1=NCCCCN1` has a TGI of over 100 µM. `CO[C@@H]1C[C@H]2[C@@H]3CC[C@H]([C@H](C)CO)[C@@]3(C)CC[C@@H]2[C@@]2(C)CC[C@H]3C[C@]312` showed a TGI of over 100 µM. In the case of `Oc1ccc(-c2nc3ccc4ccccc4c3c3c2CCCC3)c(O)c1`, the TGI is reported as over 68.1 µM. For `COc1ccc2c(c1)C(N)=C(c1ccccc1OC)C2=O`, the TGI was over 100 µM. Compound `COc1cc(C)c2c(c1C=O)Oc1c(c(C)c(O)c3c1C(O)OC3=O)OC2=O` (stereo not given) has a TGI of over 100 µM.

What follows are compounds tested on HOP-92 NSCLC (assay: DTP human tumour cell line panel, 48 h).
`CN(/N=C(\C(=O)O)c1ccccc1)C1=NCCCCN1` showed a TGI of over 100 µM. For `CO[C@@H]1C[C@H]2[C@@H]3CC[C@H]([C@H](C)CO)[C@@]3(C)CC[C@@H]2[C@@]2(C)CC[C@H]3C[C@]312`, the TGI was 63.6 µM. `Oc1ccc(-c2nc3ccc4ccccc4c3c3c2CCCC3)c(O)c1` showed a TGI of over 100 µM. `COc1ccc2c(c1)C(N)=C(c1ccccc1OC)C2=O` showed a TGI of over 100 µM. Work on `COc1cc(C)c2c(c1C=O)Oc1c(c(C)c(O)c3c1C(O)OC3=O)OC2=O` (stereo not given) yielded a TGI of over 100 µM.

These compounds were tested on UACC-257 melanoma (assay: DTP human tumour cell line panel, 48 h).
Work on `CN(/N=C(\C(=O)O)c1ccccc1)C1=NCCCCN1` yielded a TGI of over 100 µM. Compound `CO[C@@H]1C[C@H]2[C@@H]3CC[C@H]([C@H](C)CO)[C@@]3(C)CC[C@@H]2[C@@]2(C)CC[C@H]3C[C@]312` has a TGI of 86.5 µM. For `Oc1ccc(-c2nc3ccc4ccccc4c3c3c2CCCC3)c(O)c1`, the TGI was over 100 µM. For `COc1ccc2c(c1)C(N)=C(c1ccccc1OC)C2=O`, the TGI was over 100 µM. Compound `COc1cc(C)c2c(c1C=O)Oc1c(c(C)c(O)c3c1C(O)OC3=O)OC2=O` (stereo not given) has a TGI of over 100 µM.

These compounds were tested on LOX IMVI melanoma (assay: DTP human tumour cell line panel, 48 h).
`CN(/N=C(\C(=O)O)c1ccccc1)C1=NCCCCN1` was tested, and the TGI was over 100 µM. `CO[C@@H]1C[C@H]2[C@@H]3CC[C@H]([C@H](C)CO)[C@@]3(C)CC[C@@H]2[C@@]2(C)CC[C@H]3C[C@]312` was tested, and the TGI was 46.5 µM. `Oc1ccc(-c2nc3ccc4ccccc4c3c3c2CCCC3)c(O)c1` showed a TGI of over 100 µM. `COc1ccc2c(c1)C(N)=C(c1ccccc1OC)C2=O` was tested, and the TGI was over 100 µM.
